# Results from patent publication US6927223B1, “Use of serotonin agents for adjunct therapy in the treatment of cancer” (priority 2000, dated 2005).
# Entries after “also recorded” stand apart in the source; their conditions may differ.
# Experiments:
# B16F10 melanoma cells = conditions: cited from earlier work; for tumor lung colonization (wet weight of tumor aggregates) versus saline controls: fluoxetine 12, 16, 20 or 40 mg/m^2, amitriptyline 30, 60 or 75 mg/m^2, from 24 hours after i.v. inoculation; for median survival: tumor cells injected i.v., all groups
# SKMel-28 cells = assay: Viability of melanoma cells, crystal violet assay; type: cell-based, human; conditions: SKMel-28, preliminary data from one study
# Protocol: (§1) Viability was assessed by the crystal violet assay. […] Values are mean±SE for three experiments. […] Values are for one experiment.
# (§2) A375 and SKMel-28 cells were seeded at a density of 20,000 cells in one ml DMEM+10% FBS per well in 24 well plates and cultured for 24 hours. […] The culture plates were removed and the medium from each well was discarded. The cells were fixed with acetic acid:methanol (1:3) for one hour at room temperature. The fixed cells were washed with 80% methanol and stained with crystal violet (0.5%) for one hour. Crystal violet dye is taken up proportionately depending upon the number of cells that are adhered to the plate. Excess dye is removed by washing plates in running distilled water. After the plates were dry, the dye was solubilized in 10% acetic acid. Aliquots of solubilized dye from each well were transferred to a 96 well plate and the absorbance of the color was measured at 585 nm. The effects were compared relative to untreated controls.
# 3T3 adipocytes = assay: Lipid accumulation in adipocytes differentiated from NIH 3T3 fibroblasts, Oil Red-O staining; type: cell-based; conditions: 5 μM and 10 μM, 10 days
# Protocol: The relative absorbance was calculated as the ratio of absorbance of each treatment to the absorbance of the nondifferentiated (Ndiff) cells.
# After 10 days the lipid content was determined by staining the cells with Oil Red-O and determining the intensity of the red color in an uv spectrophotometer. Experiments were done in triplicate.
# B16BL6 melanoma cells = conditions: stated jointly for B16BL6 and A375
# [1] = 10 mg/kg/day injected i.v. or continuously infused subcutaneously via pump, mice; cited from earlier work
# A375 melanoma cells [2] = test system: A375 melanoma cells
# Protocol: as §1, §2
# A375 melanoma cells [3] = conditions: stated jointly for B16BL6 and A375
# B16BL6 melanoma = assay: Established subcutaneous B16BL6 melanoma in water- or ethanol-drinking C57BL6 mice: tumor growth, metastasis, body weight, intake, body fat; conditions: for Perigonadal Fat (mg ± SE): necropsy; for Carcass Fat (% ± SE): weight of lipid/dry carcass weight x 100
# Protocol: In an effort to approximate the effect of SSRIs on melanomas in clinical situations, administration of the agents began after tumor growth was apparent.
# Fourteen to 16 C57BL6 mice per group were inoculated s.c. with 1×10^6 B16BL6 melanoma cells. […] The test agent and saline control were injected daily subcutaneously (s.c.) into the gluteal region opposite from the site of tumor inoculation, approximately two hours before the dark cycle. […] At 21 days the animals were sacrificed.
# Female C57/BL6 mice consumed either water or 20% w/v ethanol ad libitum for six weeks prior to inoculation with of melanoma cells. The mice were injected with 1×10^6 tumor cells subcutaneously (s.c.) into the dorsal hip.
# Two weeks after inoculation, the animals were divided into four treatment groups: (1) water drinking or (2) ethanol drinking, both groups injected with saline control for seven days; (3) water drinking or (4) ethanol drinking. […] Tumor growth was measured with calipers on days 14, 16, 18, and 20. Mice were killed on day 21 and necropsied.
# Perigonadal and carcass fat were determined. Body weight, food consumption, and fluid-consumption were measured continually throughout the experiment.
# Perigonadal fat, a measure of body fat content, was removed at necropsy and weighed. Mice were then dehydrated at 60° C. until they reached constant weight. They were then pulverized in a Bel-Art Micro-Mill. The whole carcass was transferred to a soxhlet extractor and the lipid was extracted with chloroform:methanol (2:1) for 24 hours. The extraction cone containing the carcass was removed, air-dried to evaporate the chloroform and methanol, and then weighed. The difference in weight was the weight of carcass lipid. The percentage of carcass lipid was calculated as the weight of lipid/dry carcass weight×100.
# metastatic melanoma = conditions: single agent; cited from earlier work
# [4] = Ethanol-drinking mice (20% w/v), 10 mg/kg/day s.c. for 7 days
# [5] = Water-drinking mice, 10 mg/kg/day s.c. for 7 days
smiles,measurement,setting,value
CN(C)CCC=C1c2ccccc2CCc2ccccc21 [amitriptyline],tumor lung colonization (wet weight of tumor aggregates) versus saline controls,B16F10 melanoma cells,increased tumor lung colonization
same,median survival,B16F10 melanoma cells,17 days
CNCCC(Oc1ccc(C(F)(F)F)cc1)c1ccccc1 (stereo not shown) [fluoxetine],major toxicity range,SKMel-28 cells,8 to 16 µM
same,tumor lung colonization (wet weight of tumor aggregates) versus saline controls,B16F10 melanoma cells,increased tumor lung colonization
same,median survival,B16F10 melanoma cells,17 days
same,lipid content of differentiated adipocytes,3T3 adipocytes,increases lipid content
same,fluoxetine level that completely inhibited the incorporation of isotope,B16BL6 melanoma cells,about 30 uM
same,approximate serum level,[1],100 to 280 ng/mL
same,cell viability at 16 μM,"A375 melanoma cells [2]; A375, 16 μM",almost all the cells were dead
same,concentration at which drug toxicity is evident,"A375 melanoma cells [2]; A375, crystal violet",4 µM
same,concentration range of more pronounced toxicity,"A375 melanoma cells [2]; A375, crystal violet",8 to 16 µM
same,time within which toxicity is exerted,"A375 melanoma cells [2]; A375 and SKMel-28, crystal violet",≤ 24 h
same,fluoxetine level that completely inhibited the incorporation of isotope,A375 melanoma cells [3],about 30 uM
same,tumor growth rate,"B16BL6 melanoma; 10 mg/kg/day s.c. for 7 days, irrespective of water or ethanol consumption",significantly decreased
same,decrease in wet weight of tumors at necropsy versus saline-injected mice,"B16BL6 melanoma; 10 mg/kg/day s.c. for 7 days, necropsy day 21",greater than 2 fold
same,Perigonadal Fat (mg ± SE),B16BL6 melanoma; [4],192 ± 53 mg
same,Carcass Fat (% ± SE),B16BL6 melanoma; [4],31.7 ± 2.3 %
same,Perigonadal Fat (mg ± SE),B16BL6 melanoma; [5],53 ± 25 mg
same,Carcass Fat (% ± SE),B16BL6 melanoma; [5],25.8 ± 1.4%
same,tumor volume,"B16BL6 melanoma; daily s.c. injection from day 14 to day 21, water- and ethanol-consuming mice",decreased tumor volume
same,"corrected body weight (total body weight minus tumor wet weight), test versus control animals",B16BL6 melanoma; day 21,nearly identical
same,toxicity of the effective dose,"B16BL6 melanoma; mouse, in vivo",non toxic
same,number and frequency of metastases,"B16BL6 melanoma; subcutaneous B16BL6 tumors, 10 mg/kg/day s.c. for 7 days, 10 mg/kg/day",inhibit metastasis; also recorded: greatly reduced
same,food intake,"B16BL6 melanoma; water-drinking mice, experimental period",does not alter food intake
"CN(C)/N=N/c1[nH]cnc1C(N)=O [DTIC, dimethyltriazenoimidazole carboxymide]",share of cases of metastatic melanoma with partial remission,metastatic melanoma,about one-quarter
